Reference: ChEMBL document CHEMBL5532731, “Structural Modifications of Covalent Cathepsin S Inhibitors: Impact on Affinity, Selectivity, and Permeability” (ACS Med Chem Lett, 2024)
Active and inactive are the calls of the source. No cut-off for these calls is given here. Starred links: 1 amine or outer side, 2 acyl side, 3 side chain; linkers in the order of their positions; H or OH if unused. Non-standard residues stand in square brackets, D forms with d. Residues, ends and D or L forms follow the SMILES beside them. *: point of attachment. Cha = N[C@@H](CC1CCCCC1)C(=O)O; Morpholide = C1CN(*)CCO1; CO = O=C([*:1])[*:2]; Bn = c1ccc(C*)cc1; CH2Cl = ClC*

Tests used:
Cathepsin S [1] = molecular target: T1, Cathepsin S (Homo sapiens, UniProt P25774); assay: Inhibition of recombinant Cathepsin S (unknown origin) expressed in Escherichia coli using Z-Val-Val-Arg-AMC as substrate by fluorescence based assay
Target sequence in this assay (P25774 whole entry): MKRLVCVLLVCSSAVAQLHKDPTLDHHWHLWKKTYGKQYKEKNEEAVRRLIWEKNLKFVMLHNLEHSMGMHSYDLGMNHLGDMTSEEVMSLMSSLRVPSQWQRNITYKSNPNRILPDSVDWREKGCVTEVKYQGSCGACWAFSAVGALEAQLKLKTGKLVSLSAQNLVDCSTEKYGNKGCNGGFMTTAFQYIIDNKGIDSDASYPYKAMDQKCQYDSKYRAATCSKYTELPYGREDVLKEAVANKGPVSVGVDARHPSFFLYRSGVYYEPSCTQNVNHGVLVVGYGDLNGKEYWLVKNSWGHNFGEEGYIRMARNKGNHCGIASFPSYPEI

[2] = Permeability of compound measured after 7 hrs by PAMPA; type: ADME; conditions: read-out: permeability
Cathepsin S [3] = molecular target: T1, Cathepsin S; assay: Irreversible binding affinity to recombinant Cathepsin S (unknown origin) expressed in Escherichia coli incubated for 60 mins followed by substrate addition by fluorescence based dilution assay
Target sequence in this assay (P25774 115-331 limits assumed): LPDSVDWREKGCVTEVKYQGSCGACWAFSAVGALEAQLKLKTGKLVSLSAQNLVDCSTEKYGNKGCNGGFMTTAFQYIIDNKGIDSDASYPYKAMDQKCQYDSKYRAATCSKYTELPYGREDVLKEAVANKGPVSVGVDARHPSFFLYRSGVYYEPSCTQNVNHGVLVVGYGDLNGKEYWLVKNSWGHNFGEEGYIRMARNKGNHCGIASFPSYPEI

Cathepsin S [4] = molecular target: T1, Cathepsin S; assay: Binding affinity to recombinant Cathepsin S (unknown origin) expressed in Escherichia coli using Z-Val-Val-Arg-AMC as substrate assessed as inhibition constant for slowly reversible binding by fluorescence based assay
Target sequence in this assay (P25774 whole entry): as the sequence (P25774 whole entry) above

Cathepsin B = Cathepsin B (Homo sapiens, UniProt P07858); assay: Inhibition of human Cathepsin B using Z-Phe-Arg-AMC as substrate by fluorescence based assay
Procathepsin L = Procathepsin L (Homo sapiens, UniProt P07711); assay: Inhibition of human Cathepsin L using Z-Phe-Arg-AMC as substrate by fluorescence based assay
Procathepsin L, sequence (P07711 whole entry): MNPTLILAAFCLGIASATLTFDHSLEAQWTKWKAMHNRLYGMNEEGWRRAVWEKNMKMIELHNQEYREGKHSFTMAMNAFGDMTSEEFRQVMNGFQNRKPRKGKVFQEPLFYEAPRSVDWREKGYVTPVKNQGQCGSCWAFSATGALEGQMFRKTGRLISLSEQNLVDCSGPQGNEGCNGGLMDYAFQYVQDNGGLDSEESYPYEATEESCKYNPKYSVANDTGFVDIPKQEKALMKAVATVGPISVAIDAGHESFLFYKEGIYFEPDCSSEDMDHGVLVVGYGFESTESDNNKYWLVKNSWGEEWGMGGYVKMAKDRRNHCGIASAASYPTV

[5] = Stability of compound at pH 4 assessed as compound remaining measured after 2 hrs; type: physicochemical; conditions: buffer, pH 4, 2 h
[6] = Stability of compound at pH 4 assessed as compound remaining measured after 24 hrs; type: physicochemical; conditions: buffer, pH 4, 24 h
[7] = Stability of compound at pH 7.4 assessed as compound remaining measured after 24 hrs; type: physicochemical; conditions: buffer, read-out: Stability
Cathepsin S [8] = molecular target: T1, Cathepsin S; assay: Inhibition of Cathepsin S (unknown origin)
Target sequence in this assay (P25774 whole entry): as the sequence (P25774 whole entry) above

[9] = Selectivity index, ratio of Ki for human Cathepsin B using Z-Phe-Arg-AMC as substrate to Ki for recombinant Cathepsin S (unknown origin) expressed in Escherichia coli using Z-Val-Val-Arg-AMC as substrate
[10] = Selectivity index, ratio of Ki for human Cathepsin L using Z-Phe-Arg-AMC as substrate to Ki for recombinant Cathepsin S (unknown origin) expressed in Escherichia coli using Z-Val-Val-Arg-AMC as substrate
[11] = Oral bioavailability in rat; type: ADME, organism-based; conditions: in vivo
Cathepsin S [12] = molecular target: T1, Cathepsin S; assay: Binding affinity to recombinant Cathepsin S (unknown origin) expressed in Escherichia coli using Z-Val-Val-Arg-AMC as substrate assessed as second-order rate constant (K) for irreversible binding by fluorescence based assay
Target sequence in this assay (P25774 115-331 limits assumed): as the sequence (P25774 115-331 limits assumed) above

Cathepsin S [13] = molecular target: T1, Cathepsin S; assay: Binding affinity to recombinant Cathepsin S (unknown origin) expressed in Escherichia coli using Z-Val-Val-Arg-AMC as substrate assessed as Kinact for irreversible binding by fluorescence based assay
Target sequence in this assay (P25774 115-331 limits assumed): as above

| Ki (Cathepsin S [1]) [nM] | Papp at 7 h [2] [×10⁻⁶ cm/s] | Ki (Cathepsin B) [nM] | Ki (Procathepsin L) [nM] | also measured | SMILES |
| --- | --- | --- | --- | --- | --- |
| 331 | 0.8 | > 510 | > 600 | Activity (Cathepsin S [3]): inactive; Ki (Cathepsin S [4]): 43 nM | O=C(CS(=O)(=O)c1ccccc1)[C@H](COCc1ccccc1)NC(=O)[C@H](CC1CCCCC1)NC(=O)N1CCOCC1 |
|  | 4.7 | 1050 | 543 |  | N#C[C@H](COCc1ccccc1)NC(=O)[C@H](CC1CCCCC1)NC(=O)N1CCOCC1 |
| 2.2 | 0.1 | 142 | 21 | Stability [5]: 50%; Stability [6]: 80%; remaining at 24 h [7]: 50% | O=C(N/N=C/[C@H](COCc1ccccc1)NC(=O)[C@H](CC1CCCCC1)NC(=O)N1CCOCC1)c1ccccc1 |
|  |  |  |  | Ki (Cathepsin S [8]): 13 nM | CN1CCN(C(=O)N[C@@H](Cc2ccccc2)C(=O)N[C@H](/C=C/S(=O)(=O)c2ccccc2)CCc2ccccc2)CC1 [K-777] |
| 61 | 4.1 | > 12000 | 5040 |  | N#C[C@H](COCc1ccccc1)NC(=O)[C@H](CC1CCCCC1)NC(=O)C1CCOCC1 |
| 1.5 |  | > 12000 | 385 |  | N#CC1(NC(=O)[C@H](CC2CCCCC2)NC(=O)N2CCOCC2)CC1 |
| 11 |  | > 12000 | > 10000 |  | N#C[C@H](COCc1ccccc1)NC(=O)[C@H](CC1CCCCC1)N[C@@H](c1ccc(F)cc1)C(F)(F)F |
| 13 |  | > 12000 | 716 |  | N#CC1(NC(=O)[C@H](CC2CCCCC2)NC(=O)c2ccncc2)CC1 |
| 13 | 2.5 | 1670 | 1460 |  | N#C[C@H](CCc1ccccc1)NC(=O)[C@H](CC1CCCCC1)NC(=O)c1ccncc1 |
|  | 2 | 1910 | 1020 |  | N#C[C@H](COCc1ccccc1)NC(=O)[C@H](CC1CCCCC1)NC(=O)c1ccncc1 |
| 382 | 6.6 | > 12000 | 6340 |  | N#C[C@H](CCc1ccccc1)NC(=O)[C@H](CC1CCCCC1)NC(=O)C1CCOCC1 |
| 7.8 |  | > 12000 | > 10000 | Ratio Ki [9]: > 1500 | CS(=O)(=O)C[C@H](N[C@@H](c1ccc([N+](=O)[O-])cc1)C(F)(F)F)C(=O)NC1(C#N)CC1 |
| 20 | 4.9 | > 12000 | 1500 |  | N#CC1(NC(=O)[C@H](CC2CCCCC2)N[C@@H](c2ccc(F)cc2)C(F)(F)F)CC1 |
| 0.039 | 4.5 | 64 | 17 | Ratio Ki [9]: > 1600; Ratio Ki [10]: > 435; Ki (Cathepsin S [4]): 0.016 nM | O=C[C@H](COCc1ccccc1)NC(=O)[C@H](CC1CCCCC1)NC(=O)N1CCOCC1 ({Morpholide-CO}-[Cha]-Ser(Bn)-aldehyde) |
| 117 | 0.1 | > 12000 | 1670 |  | N#CC1(NC(=O)[C@H](CC2CCCCC2)NC(=O)C2CCOCC2)CC1 |
|  |  |  |  | bioavailability [11]: 92% | CNC(=O)O[C@H]1COc2ccc(N3CCN(C4COC4)CC3)cc2[C@@H]1NC(=O)c1ccc(F)cc1 |
| 1 |  | 1670 | 7110 | Activity (Cathepsin S [3]): inactive; Ratio Ki [9]: 1670 | CS(=O)(=O)C[C@H](N[C@@H](c1ccc(F)cc1)C(F)(F)F)C(=O)NC1(C#N)CC1 |
| 3 |  |  |  | K (Cathepsin S [12]): 7.2 10^6/M/s; Kinact (Cathepsin S [13]): 0.02 s⁻¹; Activity (Cathepsin S [3]): Active | C=CS(=O)(=O)C(=O)[C@H](COCc1ccccc1)NC(=O)[C@H](CC1CCCCC1)NC(=O)N1CCOCC1 |
| 0.5 |  |  |  | K (Cathepsin S [12]): 4.3 10^6/M/s; Kinact (Cathepsin S [13]): 0.002 s⁻¹ | O=C(CCl)[C@H](COCc1ccccc1)NC(=O)[C@H](CC1CCCCC1)NC(=O)N1CCOCC1 ({Morpholide-CO}-[Cha]-Ser(Bn)-CH2Cl) |
| 13 | 0.7 | 82 | > 10000 |  | CS(=O)(=O)C[C@H](N[C@@H](c1ccc([N+](=O)[O-])cc1)C(F)(F)F)C(=O)N[C@H](C#N)COCc1ccccc1 |
| 3.6 |  | 36 | > 10000 | Ratio Ki [10]: > 2780 | CS(=O)(=O)C[C@H](N[C@@H](c1ccc([N+](=O)[O-])cc1)C(F)(F)F)C(=O)N[C@H](C#N)CCc1ccccc1 |
| 67 |  | > 2550 | > 600 | Activity (Cathepsin S [3]): inactive | O=C(CO)[C@H](COCc1ccccc1)NC(=O)[C@H](CC1CCCCC1)NC(=O)N1CCOCC1 |
| 989 |  | > 12 | > 2500 | Stability [6]: 13% | O=C(N/N=C(\CS(=O)(=O)c1ccccc1)[C@H](COCc1ccccc1)NC(=O)[C@H](CC1CCCCC1)NC(=O)N1CCOCC1)c1ccccc1 |
| 146 |  | > 12000 | > 10000 |  | N#C[C@H](CCc1ccccc1)NC(=O)[C@H](CC1CCCCC1)N[C@@H](c1ccc(F)cc1)C(F)(F)F |
| 25 |  | > 2550 | > 600 | Activity (Cathepsin S [3]): Active | O=C(OCC(=O)[C@H](COCc1ccccc1)NC(=O)[C@H](CC1CCCCC1)NC(=O)N1CCOCC1)c1ccccc1 |
|  | 6 | 7850 | 2540 |  | N#C[C@H](CCc1ccccc1)NC(=O)[C@H](CC1CCCCC1)NC(=O)N1CCOCC1 |
| 2.4 |  | 157 | 1950 |  | CS(=O)(=O)C[C@H](N[C@@H](c1ccc(F)cc1)C(F)(F)F)C(=O)N[C@H](C#N)COCc1ccccc1 |
| 165 |  | > 10 | > 3000 | Activity (Cathepsin S [3]): inactive | O=C(SCC(=O)[C@H](COCc1ccccc1)NC(=O)[C@H](CC1CCCCC1)NC(=O)N1CCOCC1)c1ccccc1 |
